Results from ChEMBL document CHEMBL1131803, “Novel benzopyrano[3,4-c]pyrrole derivatives as potent and selective dopamine D3 receptor antagonist” (Bioorg Med Chem Lett, 1999).

Experiments:
D(2) dopamine receptor = D(2) dopamine receptor (Homo sapiens, UniProt P14416); experiment: Ability to displace [125I]iodosulpiride from human dopamine D2 (hD2) receptor transfected into CHO cells.; assay type: cell-based
D(3) dopamine receptor = D(3) dopamine receptor (Homo sapiens, UniProt P35462); experiment: Ability to displace [125I]iodosulpiride from human dopamine D3 (hD3) receptor transfected into CHO cells.; assay type: cell-based
Chain of D(3) dopamine receptor (P35462 whole entry): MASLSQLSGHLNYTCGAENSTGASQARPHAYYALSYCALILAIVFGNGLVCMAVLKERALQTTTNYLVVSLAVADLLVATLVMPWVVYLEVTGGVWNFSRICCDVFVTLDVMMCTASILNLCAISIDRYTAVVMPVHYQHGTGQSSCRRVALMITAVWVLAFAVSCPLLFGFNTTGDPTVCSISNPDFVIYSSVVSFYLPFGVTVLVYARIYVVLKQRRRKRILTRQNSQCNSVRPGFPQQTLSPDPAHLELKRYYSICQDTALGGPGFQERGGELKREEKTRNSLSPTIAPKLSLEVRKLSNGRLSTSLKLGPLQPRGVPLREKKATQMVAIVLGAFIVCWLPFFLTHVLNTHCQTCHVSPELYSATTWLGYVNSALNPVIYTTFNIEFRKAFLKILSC

Chain of D(2) dopamine receptor (P14416 whole entry): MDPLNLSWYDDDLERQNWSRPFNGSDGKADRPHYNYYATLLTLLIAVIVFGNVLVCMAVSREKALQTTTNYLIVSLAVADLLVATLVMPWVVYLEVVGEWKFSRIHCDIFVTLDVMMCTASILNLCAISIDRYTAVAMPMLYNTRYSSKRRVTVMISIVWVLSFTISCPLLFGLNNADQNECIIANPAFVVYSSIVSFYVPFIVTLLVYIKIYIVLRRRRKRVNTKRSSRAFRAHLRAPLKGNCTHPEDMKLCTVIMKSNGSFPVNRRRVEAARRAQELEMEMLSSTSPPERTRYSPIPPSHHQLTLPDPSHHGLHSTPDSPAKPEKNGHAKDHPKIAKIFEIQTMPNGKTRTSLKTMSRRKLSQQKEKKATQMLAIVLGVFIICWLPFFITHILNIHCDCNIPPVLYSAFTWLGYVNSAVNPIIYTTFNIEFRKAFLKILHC

| SMILES | Ki (D(2) dopamine receptor) | Ki (D(3) dopamine receptor) |
| --- | --- | --- |
| COc1ccc2c(c1)OCC1CN(Cc3ccccc3)CC21 (stereo not drawn) | 251 nM | 79.4 nM |
| CS(=O)(=O)Nc1ccc(CCN2CC3COc4ccc(C#N)cc4C3C2)cc1 (stereo not drawn) | 25.1 nM | 1.58 nM |
| CC(=O)c1ccc(C(=O)Nc2ccc(CCN3CC4COc5ccc(C#N)cc5C4C3)cc2)cc1 (stereo not drawn) | 20 nM | 0.794 nM |
| N#Cc1ccc2c(c1)C1CN(Cc3ccccc3)CC1CO2 (cis isomer) | 316 nM | 100 nM |
| N#Cc1ccc2c(c1)[C@H]1CN(CCCCNC(=O)c3ccc(-c4ccccc4)cc3)C[C@@H]1CO2 | 31.6 nM | 0.316 nM |
| CC(=O)Nc1ccc(CN2C[C@H]3COc4ccc(C#N)cc4[C@@H]3C2)cc1 | 31.6 nM | 20 nM |
| CC(=O)Nc1ccc(CCN2C[C@H]3COc4ccc(C#N)cc4[C@@H]3C2)cc1 | 39.8 nM | 3.16 nM |
| Brc1ccc2c(c1)C1CN(Cc3ccccc3)CC1CO2 (stereo in doubt; trans) | 50.1 nM | 15.8 nM |
| N#Cc1ccc2c(c1)[C@H]1CN(CCCCNC(=O)c3ccc(-c4ccc(N)cc4)cc3)C[C@@H]1CO2 (single isomer, unassigned) | 20 nM | 0.2 nM |
| COc1ccc2c(c1)C1CN(Cc3ccccc3)CC1CO2 (stereo not drawn) | 200 nM | 79.4 nM |
| c1ccc(CN2CC3COc4ccccc4C3C2)cc1 (trans isomer) | 316 nM | 126 nM |
| N#Cc1ccc2c(c1)C1CN(CCCCNC(=O)c3ccc(-c4ccccc4)cc3)CC1CO2 (stereo not drawn) | 79.4 nM | 0.794 nM |
| Fc1ccc2c(c1)C1CN(Cc3ccccc3)CC1CO2 (trans isomer) | 25.1 nM | 7.94 nM |
| CC(=O)Nc1ccc(CN2CC3COc4ccc(C#N)cc4C3C2)cc1 (stereo not drawn) | 25.1 nM | 12.6 nM |
| CC(=O)Nc1ccc(CCN2CC3COc4ccc(C#N)cc4C3C2)cc1 (stereo not drawn) | 39.8 nM | 1 nM |
| N#Cc1ccc2c(c1)C1CN(Cc3ccccc3)CC1CO2 (trans isomer) | 25.1 nM | 3.98 nM |
| CCCN1CC2COc3ccc(C#N)cc3C2C1 (stereo not drawn) | 126 nM | 15.8 nM |
| N#Cc1ccc2c(c1)OCC1CN(Cc3ccccc3)CC21 (trans isomer) | 501 nM | 25.1 nM |
| N#Cc1ccc2c(c1)C1CN(Cc3ccccc3)CC1CC2 (trans isomer) | 10 nM | 6.31 nM |
| Clc1ccc2c(c1)C1CN(Cc3ccccc3)CC1CO2 (trans isomer) | 31.6 nM | 15.8 nM |
| Brc1ccc2c(c1)C1CN(Cc3ccccc3)CC1CO2 (stereo in doubt; cis) | 501 nM | 100 nM |
| N#Cc1ccc2c(c1)[C@@H]1CN(CCCCNC(=O)c3ccc(-c4ccccc4)cc3)C[C@H]1CO2 | 50.1 nM | 0.631 nM |
| N#Cc1ccc2c(c1)[C@@H]1CN(Cc3ccccc3)C[C@H]1CO2 | 31.6 nM | 6.31 nM |
| N#Cc1ccc2c(c1)[C@H]1CN(Cc3ccccc3)C[C@@H]1CO2 | 20 nM | 2.51 nM |
| CC(=O)Nc1ccc(CCN2C[C@@H]3COc4ccc(C#N)cc4[C@H]3C2)cc1 | 31.6 nM | 1 nM |
| CC(=O)Nc1ccc(CN2C[C@@H]3COc4ccc(C#N)cc4[C@H]3C2)cc1 | 12.6 nM | 10 nM |
| N#Cc1ccc2c(c1)C1CN(Cc3ccc(F)cc3)CC1CO2 (stereo not drawn) | 79.4 nM | 7.94 nM |
| N#Cc1ccc2c(c1)[C@H]1CN(Cc3ccc(F)cc3)C[C@@H]1CO2 | 25.1 nM | 6.31 nM |
| N#Cc1ccc2c(c1)[C@@H]1CN(Cc3ccc(F)cc3)C[C@H]1CO2 | 39.8 nM | 15.8 nM |
